Reference: PubChem BioAssay (NCI)
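96-well plates; 48 h exposure; 5 concentrations. Endpoints by linear interpolation between flanking doses. Not reached: highest tested concentration assigned. GI50 marks 50% less growth. TGI: concentration producing complete growth inhibition.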

Experiments:
Test in all cases: DTP human tumour cell line panel, 48 h
A498 renal = tested on: A498 renal
KM12 colon = tested on: KM12 colon
MCF7 breast = tested on: MCF7 breast
OVCAR-4 ovarian = tested on: OVCAR-4 ovarian
SF-295 CNS = tested on: SF-295 CNS
HOP-62 NSCLC = tested on: HOP-62 NSCLC
HS 578T breast = tested on: HS 578T breast
NCI-H460 lung = tested on: NCI-H460 lung
HCT-116 colon = tested on: HCT-116 colon
A549 NSCLC = tested on: A549 NSCLC

Compound	GI50 (A498 renal)	TGI (A498 renal)	GI50 (KM12 colon)	TGI (KM12 colon)	GI50 (MCF7 breast)	TGI (MCF7 breast)	GI50 (OVCAR-4 ovarian)	TGI (OVCAR-4 ovarian)	GI50 (SF-295 CNS)	TGI (SF-295 CNS)	GI50 (HOP-62 NSCLC)	TGI (HOP-62 NSCLC)	GI50 (HS 578T breast)	TGI (HS 578T breast)	GI50 (NCI-H460 lung)	TGI (NCI-H460 lung)	GI50 (HCT-116 colon)	TGI (HCT-116 colon)	GI50 (A549 NSCLC)	TGI (A549 NSCLC)
C#CCN(Cc1nc2cc(C(F)(F)F)ccc2nc1-c1ccccc1)c1ccc(C)cc1	10.6 µM	27.5 µM	9.94 µM	> 24.6 µM	2.38 µM	> 59.1 µM	> 24.9 µM	> 43.2 µM	4.78 µM	> 31.8 µM	4.41 µM	33.9 µM	10.2 µM	> 54.4 µM	3.93 µM	> 100 µM	0.628 µM	15.5 µM	9.23 µM	> 93 µM
COc1ccc(Cn2cc3c(c2-c2ccccc2)CCc2cnoc2-3)cc1OC	0.253 µM	3.27 µM	0.487 µM	> 100 µM	0.574 µM	> 100 µM	3.56 µM	> 100 µM	0.34 µM	> 100 µM	1.34 µM	> 100 µM	0.564 µM	6.94 µM	0.457 µM	> 100 µM	0.482 µM	> 100 µM	0.875 µM	> 100 µM
COCCNc1ccc2c3c(cccc13)C(=O)N(CCN(C)C)C2=O	6.16 µM	21.5 µM	8.65 µM	> 25 µM	6.5 µM	23.4 µM	11.8 µM	> 25 µM	6.31 µM	21.1 µM	7.55 µM	> 25 µM	9.38 µM	> 25 µM	4.63 µM	11.4 µM	6.65 µM	> 25 µM	6.35 µM	> 25 µM
Cn1cc(C2=C(c3c4n(c5ccccc35)CCC(CN)C4)C(=O)NC2=O)c2ccccc21 (stereo not given)	4.02 µM	7.6 µM	3.42 µM	6.92 µM	2.06 µM	6.5 µM	2.5 µM	7.42 µM	2.31 µM	6.09 µM	3.12 µM	6.62 µM	1.55 µM	8.2 µM	3.32 µM	7.05 µM	2 µM	5.77 µM	3.05 µM	7.83 µM
COc1cc(/C(=C2/O[C@@H]([C@H]3COC(C)(C)O3)[C@H]3OC(C)(C)O[C@@H]23)c2ccc3ccccc3c2)cc(OC)c1OC	17.8 µM	74.6 µM	6 µM	> 100 µM	3.59 µM	14.4 µM	2.82 µM	8.02 µM	6.92 µM	52.1 µM	9.78 µM	31.4 µM	4.44 µM	53.4 µM	4.1 µM	> 100 µM	2.51 µM	5.7 µM	3.09 µM	9.55 µM
CC[C@@H](C(=O)[C@H](C)[C@H](O)[C@@H](C)[C@H]1O[C@H]([C@@H](CC)C(=O)N(CC)CC)CC[C@H]1C)C1O[C@]2(C=C[C@@H](O)[C@]3(CC[C@@](C)([C@H]4CC[C@](O)(CC)[C@H](C)O4)O3)O2)[C@H](C)C[C@@H]1C (stereo not given in full)	2.44 µM	8.21 µM	2.53 µM	7.03 µM	2.61 µM	10.1 µM	3.04 µM	11.3 µM	2.49 µM	9.81 µM	4.33 µM	19.5 µM	2.9 µM	13.8 µM	2.61 µM	7.3 µM	2.9 µM	12.5 µM	2.95 µM	17.6 µM
